What was measured:
IIb HDACs = experiment: In vitro HDAC inhibition assay, class IIb isoforms; type: biochemical, human; details: 1 μM AR‐42; range over isoforms
Description: HDAC activity was measured by a commercial vendor using human recombinant HDAC enzymes and fluorogenic HDAC substrates (Eurofins Cerep SA, Celle L'Evescault, France). Substrate concentrations ranged from 20 to 400 μM, and incubation conditions ranged from 10 to 90 min (RT or 37°C), depending on isoform. Results are expressed as percent inhibition of control specific activity in the presence of 1 μM AR‐42.

serum cytokines = experiment: Serum cytokine panel (multiplex), terminal samples from Study 2; type: in vivo, mouse
Description: This confirmatory study was performed exactly as Study 1 with expanded animal numbers. Tumor‐free control groups were maintained at 6 animals each, whereas 10 animals were included in each of the tumor‐bearing groups. […] Grip strength was measured on study days 0 (baseline) and 16. Due to rapid model progression, this study was terminated on day 17 after only 12 days of treatment.
Serum cytokine panel analyses were performed by a commercial vendor (Eve Technologies, Calgary, Canada) as previously described (Tseng et al, 2015a). Serum interleukin‐6 (IL‐6) was measured using a commercial ELISA kit (R&D Systems, Minneapolis, MN, USA) according to the manufacturer's instructions.

[1] = system: atrogin‐1, MuRF‐1, CEBPδ expression; experiment: qRT–PCR of atrophy‐related genes in gastrocnemius, Study 1; type: in vivo, mouse; details: GTx‐024 15 mg/kg, AR‐42 10 mg/kg, or both
Description: To generate muscle tissue RNA, 15 mg of gastrocnemius muscle tissue was lysed in 10 volumes of lysis buffer per tissue mass in prefilled 2.0‐ml tubes with 3.0 mm zirconium beads (MIDSCI; St. Louis, MO). Tubes were loaded into BeadBlaster™ 24 (MIDSCI; St. Louis, MO) and […] for five cycles of 5 s with a 30‐s pause between cycles. Lysate was collected, and RNA was isolated using the mirVana™ miRNA Isolation Kit, with phenol (Thermo Fisher; Waltham, MA). Samples were treated with DNA‐free DNA Removal Kit to eliminate any DNA contamination (Invitrogen, Carlsbad, CA). Total RNA (0.5 μg) was reverse‐transcribed using high‐capacity cDNA reverse transcription kit (Applied Biosystems, Foster City, CA) for 10 min at 25°C, 120 min at 37°C, and 5 min at 85°C (T100™ Thermal Cycler, Bio‐Rad). Real‐time qPCR was performed on the QuantStudio 7 system (Applied Biosystems, Foster City, CA) using the powerup SYBR Green Master Mix (Applied Biosystems, Foster City, CA). Cycling was performed using the QuantStudio 7 real‐time PCR software—2 min at 50°C and 10 min at 95°C—followed by 40 cycles of 15 s at 95°C and 1 min at 60°C. […] As transformed expression data are not normally distributed, statistical differences between treatment groups were determined by one‐way ANOVA followed by Dunnett's test on raw delta C t values.

pSTAT3 (Y705) = experiment: pSTAT3/tSTAT3 Western blot of gastrocnemius muscle; type: in vivo, mouse
Description: Western blots from all studies were performed on gastrocnemius muscle from representative animals lysed by Nonidet P‐40 isotonic lysis buffer [50 mM Tris–HCl, pH 7.5, 120 mM NaCl, 1% (v/v) Nonidet P‐40, 1 mM EDTA, 50 mM NaF, 40 mM glycerophosphate, and […] each of protease inhibitors (aprotinin, pepstatin, and leupeptin)]. Equivalent amounts of protein from each sample, as determined by the Bradford assay (Bio‐Rad), were resolved by SDS–PAGE and then transferred (semi‐dry) onto Immobilon nitrocellulose membranes (Millipore, Bellerica, MA). Membranes were washed twice with TBST [Tris‐buffered saline (TBS) containing 0.1% Tween‐20], blocked with 5% non‐fat milk in TBST for 1 h, and then washed an additional three times. Membranes were incubated with specific primary antibody in TBST (1:1,000) at 4°C overnight, washed three times (TBST), and then incubated with appropriate goat anti‐rabbit or anti‐mouse IgG–horseradish peroxidase‐conjugated secondary antibodies (1:5,000) at room temperature (1 h). Following additional washes (TBST), immunoblots were visualized as appropriate by ECL chemiluminescence (Amersham Biosciences, Little Chalfont, United Kingdom) or Duration HRP Chemiluminescence (Alkali Scientific, Florida, United States). Primary antibodies: phospho‐STAT3 (Tyr705) (D3A7) XP® rabbit mAb #9145, STAT3 (124H6) mouse mAb #9139 (Cell Signaling Technology, Danvers, MA); α‐tubulin (B‐7), sc‐5286 (Santa Cruz Biotechnologies, Santa Cruz, CA); androgen receptor (EP670Y), ab52615 (Abcam, Cambridge, MA) and GAPDH (6C5), sc‐32233 (Santa Cruz Biotechnologies, Santa Cruz, CA).

[2] = C‐26 Tumor‐bearing, GTx‐024 15 mg/kg, AR‐42 10 mg/kg, or both, mean ± SD

`CC(C)[C@H](C(=O)Nc1ccc(C(=O)NO)cc1)c1ccccc1` [AR‐42] was tested, and the “inhibition of class IIb HDACs” value (IIb HDACs) was 86–100%, the “GM‐CSF, serum” value (serum cytokines; [2]) was 18.70 ± 3.77 pg/mL and the “G‐CSF, serum” value (serum cytokines; [2]) was 2782.18 ± 2191.30 pg/mL. For the same compound, the “IL‐6, serum” value (serum cytokines; [2]) was 256.59 ± 183.1 pg/mL, the “IL‐17, serum” value (serum cytokines; [2]) was 1.82 ± 0.85 pg/mL and the “IP‐10, serum” value (serum cytokines; [2]) was 215.35 ± 52.46 pg/mL. The “KC, serum” value (serum cytokines; [2]) was 363.38 ± 200.65 pg/mL, the “LIF, serum” value (serum cytokines; [2]) was 15.79 ± 5.15 pg/mL and the “LIX, serum” value (serum cytokines; [2]) was 2515.38 ± 3119.67 pg/mL. The “M‐CSF, serum” value (serum cytokines; [2]) was 20.21 ± 4.63 pg/mL, the “effect on circulating cytokine levels” value (serum cytokines; Study 2, 10 mg/kg monotherapy, tumor‐bearing) was “did not significantly reduce circulating levels of any evaluated cytokine” and the “atrogin‐1, MuRF‐1, CEBPδ expression in gastrocnemius relative to tumor‐bearing controls” value [1] was “significantly reduced”. The pSTAT3 in gastrocnemius (pSTAT3 (Y705); female C‐26 tumor‐bearing mice, Study 3) was “reduced levels of pSTAT3 activation” and the pSTAT3 in gastrocnemius (pSTAT3 (Y705); male C‐26 tumor‐bearing mice, Study 1) was “reduced pSTAT3 but not equally in all animals”.
